Measured values published in publication PMC6201272 (Journal of natural products, 2016).

What was measured:
E.faecium ATCC 51299 = experiment: MIC determination; format: cell-based, Enterococcus faecium; settings: duplicate, at least two independent experiments
E. coli ATCC 25922 = experiment: MIC determination; format: cell-based, Escherichia coli; settings: for Minimum inhibitory concentration, E. coli ATCC 25922: MIC, duplicate, at least two independent experiments
P. aeruginosa ATCC 27853 = experiment: MIC determination, P. aeruginosa ATCC 27853; format: cell-based
S. aureus ATCC 29213 = experiment: MIC determination; format: cell-based, Staphylococcus aureus; settings: duplicate, at least two independent experiments
[1] = system: monkey kidney cell line (BSC-1); experiment: Cytotoxicity against monkey kidney cell line BSC-1; format: cell-based
E.faecium ATCC 29212 = experiment: MIC determination; format: cell-based, Enterococcus faecium; settings: duplicate, at least two independent experiments
C. albicans ATCC 28517 = experiment: MIC determination, C. albicans ATCC 28517; format: cell-based
S. aureus ATCC 43300 = experiment: MIC determination; format: cell-based, Staphylococcus aureus; settings: duplicate, at least two independent experiments
[2] = system: bacterial strains and cell lines of Table 3; experiment: Cytotoxity and antibacterial activity, all assays; format: cell-based
[3] = system: human colorectal tumor cell line (HCT-116); experiment: Cytotoxicity against human colorectal tumor cell line HCT-116; format: cell-based; settings: maximum tested concentration 50 μg/mL
[4] = system: bacteria (broad-spectrum); settings: cited from earlier work

Compound	Minimum inhibitory concentration, E.faecium ATCC 51299 (E.faecium ATCC 51299)	Minimum inhibitory concentration, E. coli ATCC 25922 (E. coli ATCC 25922)	Minimum inhibitory concentration, P. aeruginosa ATCC 27853 (P. aeruginosa ATCC 27853)	Minimum inhibitory concentration, S. aureus ATCC 29213 (S. aureus ATCC 29213)	Cytotoxicity Bsc-1 (IC50) [1]	Minimum inhibitory concentration, E.faecium ATCC 29212 (E.faecium ATCC 29212)	Minimum inhibitory concentration, C. albicans ATCC 28517 (C. albicans ATCC 28517)	Minimum inhibitory concentration, S. aureus ATCC 43300 (S. aureus ATCC 43300)	Cytotoxity and antibacterial activity in all assays (in words) [2]	Toxicity against HCT-116 (in words) [3]	Inhibition of growth of E. coli (in words) (E. coli ATCC 25922; authors' antimicrobial assays)	Antibacterial activity previously reported (in words) [4]
1-(3′,4′,6′-Tribromo-1′-methoxyphenoxy)-3,5-dibromo-2-methoxybenzene [Compound 3a]	>50 µg/mL	>50 µg/mL	>50 µg/mL	>50 µg/mL	>50 µg/mL	50 µg/mL	>50 µg/mL	>50 µg/mL				
1-(4′,5′,6′-Tribromo-1′-methoxyphenoxy)-3,5-dibromo-2-methoxybenzene [Compound 5a]	>50 µg/mL	>50 µg/mL	>50 µg/mL	>50 µg/mL	>50 µg/mL	>50 µg/mL	>50 µg/mL	>50 µg/mL				
COc1c(Br)cc(Br)cc1Oc1c(Br)c(OC)c(Br)c(Br)c1OC [Compound 8a, 1-(3′,5′,6′-Tribromo-1′,4′-dimethoxy-1′-phenoxy)-3,5-dibromo-2-methoxybenzene]									inactive in all assays	nontoxic		
Oc1c(Br)cc(Br)cc1Oc1ccc(Br)cc1Br [Compound 10]											did not inhibit the growth	broad-spectrum antibacterial activity
